Data taken from paper PMC6883804, “Cathelicidin Contributes to the Restriction of Leishmania in Human Host Macrophages” (Frontiers in Immunology, 2019).

Key:
L. aethiopica (Lae) [1] = assay: DNA fragmentation (TUNEL) by flow cytometry, L. aethiopica; format: cell-based, Leishmania aethiopica
Procedure: (§1) L. major (Lm, MHOM_IL_81_FEBNI), L. aethiopica (Lae, MHOM/ET/72/L100 Z14), and the transgenic Lm dsRed (construct pSSUint-DsRed was a kind gift from Dr. Toni Aebischer, Robert Koch Institute, Berlin, Germany) and Lae dsRed promastigotes were cultured at 27°C in biphasic Novy-Nicolle-McNeal blood agar medium as described ([60]). Of note, all viable promastigotes express the transgenic dsRed protein. Upon transformation into the amastigote life stage, a 1 log-scale higher dsRed fluorescence is present, due to the high-level expression in the amastigote life stage ([31]). Logarithmic-phase or stationary-phase promastigotes were obtained after 2 (log-phase) or 7 (stat-phase) days of culture, respectively. Lm and Lae axenic amastigotes were generated by incubating log-phase promastigotes in pH 5.5 at 33°C and isolated using a discontinuous Histopaque® 1119 (Sigma Aldrich, Germany) density gradient as described ([61]).
(§2) To assess apoptosis, Lm and Lae promastigotes, which resided in a logarithmic growth phase, were treated with 30 and 60 ng/ml hrLL37 (PeptaNova GmbH, Sandhausen, Germany) for 72 h. […] Subsequently, DNA fragmentation was assessed by flow cytometry or immunofluorescence imaging using an in situ cell-death detection kit, based on terminal deoxynucleotidyl transferase dUTP nick end labeling (TUNEL), as described ([30]). Exposure of phosphatidylserine (PS) was assessed by AnnexinA5 binding using flow cytometry.
(§3) • FACS analysis of Leishmania parasites was performed as described Wenzel et al. ([61]). Apoptosis, among parasites, was assessed by staining with AnnexinA5-Alexa Fluor 647 using a Ca^2+ rich buffer. • For phenotyping hMDM by flow cytometry, hMDM were washed in FACS-Buffer (PBS supplemented with 1% FCS, 1% human serum and 1% BSA) and incubated with anti-CD14-FITC (1:100, IgG2b), anti-CD163-PE (1:50, IgG1, GHI/61), or anti-MHC II-PerCP (1:100, IgG2a, L243) for 30 min on ice in the dark. […] Upon analyzing, at least 10,000 events (human cells) or 20,000 (parasites) were recorded using a BD LSR II flow cytometer (BD Bioscience, Heidelberg, Germany). […]

Leishmania major (Lm) [2] = assay: DNA fragmentation (TUNEL) by flow cytometry, L. major; format: cell-based; settings: mean ± SD
Procedure: as §1, §2, §3

Leishmania promastigotes = assay: Parasite morphology by microscopy after hrLL37 treatment; format: cell-based; settings: microscopy (Figure 2C), as described for apoptotic parasites
Procedure: To assess apoptosis, Lm and Lae promastigotes, which resided in a logarithmic growth phase, were treated with 30 and 60 ng/ml hrLL37 (PeptaNova GmbH, Sandhausen, Germany) for 72 h. Leishmania axenic amastigotes were treated with 10 and 100 ng/ml hrLL37 or 25 μM staurosporine for 24 h. Subsequently, DNA fragmentation was assessed by flow cytometry or immunofluorescence imaging using an in situ cell-death detection kit, based on terminal deoxynucleotidyl transferase dUTP nick end labeling (TUNEL), as described ([30]). Exposure of phosphatidylserine (PS) was assessed by AnnexinA5 binding using flow cytometry.

Leishmania major (Lm) [3] = assay: Phosphatidylserine exposure (AnnexinA5 binding) by flow cytometry, L. major; format: cell-based; settings: mean ± SD; for AnnexinA5-binding parasites: Lm log-phase promastigotes, 72 h, untreated 14.7 ± 11.1%
Procedure: as §1, §2, §3

L. aethiopica (Lae) [4] = assay: Phosphatidylserine exposure (AnnexinA5 binding) by flow cytometry, L. aethiopica; format: cell-based, Leishmania aethiopica; settings: mean ± SD; for AnnexinA5-binding parasites: Lae log-phase promastigotes, 72 h, untreated 8.0 ± 4.5%
Procedure: as §1, §2, §3

cathelicidin = assay: Cathelicidin protein expression in hMDM1 by western blot densitometry; format: cell-based, human; settings: hMDM1, 100 nM, western blot densitometry normalized to ß-actin and untreated control = 1, mean ± SD, n = 5-7
Procedure: (§4) Human peripheral mononuclear cells (PBMCs) were isolated from buffy coats (DRK-Blutspendedienst Hessen GmbH) by passage over a Leukocyte Separation Medium gradient as described previously ([30]). Monocytes, obtained by plastic adherence or CD14 selection were incubated either with 10 ng/ml rhGM-CSF (Leukine® Sanofi-Aventis, Bridgewater, US) or 30 ng/ml rhM-CSF (R&D Systems, Abingdon, UK) for a period of 5 to 7 d at 37°C, 5% CO2 to generate hMDM1 or hMDM2, respectively. Cells were generated in 6 w plates or in 25 cm^2 culture flasks and were detached by cooling cells down on ice, following detachment with a cell scraper. Experimental data, conducted with monocytes obtained from human donors, are depicted as dot plots, in which each dot presents data from a single donor.
(§5) The cells were co-incubated with stationary phase Lm or Lae promastigotes or axenic amastigotes at a MOI ratio of 1:10 in RPMI 1640 supplemented with 10% heat inactivated fetal calf serum, 50 μM β-mercaptoethanol (all from Sigma Aldrich), 2 mM L-glutamine, 100 U/ml penicillin and 100 μg/ml streptomycin, 10 mM HEPES (all from Biochrom) for 3 h at 37°C in a humidified atmosphere in a CO2 incubator. Extracellular parasites were removed by centrifugation and washing the cells. During infection experiments, cathelicidin expression was induced by incubation of hMDM with 100 nM calcitriol or calcipotriol for 24 h. […] The LmdsRed promastigotes increase their fluorescence intensity when transforming into amastigotes, which enables the quantification of the parasite propagation by measuring the dsRed mean fluorescence intensity using FACS ([62], [63]).
A total number of 0.5 × 10^6 hMDM were lysed in Lämmli-Buffer (A. bidest supplemented with 0.7 M Glycerol, 1.7% SDS, 0.1 M DTT and 30 μM Bromphenol blue), denaturated at 95°C for 10 min and loaded onto a 15% SDS-polyacrylamide gel. […] The membrane was washed once more and the protein bands were detected using an ECL substrate (GE Healthcare, Buckinghamshire, United Kingdom). Using ImageJ, densitometry analysis was performed to quantify the intensities of the protein bands.

CAMP = CAMP gene expression in hMDM1 by qRT-PCR after vitamin D derivatives; format: cell-based, human; settings: hMDM1, 100 nM, after 6 days (late), qRT-PCR normalized to GAPDH and to untreated control = 1, mean ± SD, n = 1-5
Procedure: as §4, with “Experimental data, conducted with monocytes obtained from human donors, are depicted as dot plots, in which each dot presents data from a single donor.” left out
as §5, with “incubator.” for “incubator. Extracellular parasites were removed by centrifugation and washing the cells. During infection experiments, cathelicidin expression was induced by incubation of hMDM with 100 nM calcitriol or calcipotriol for 24 h.”, “[63]). […]” for “[63]).”

L. major dsRed in hMDM1 [5] = assay: Parasite survival (dsRed MFI) in infected hMDM1 by flow cytometry; format: cell-based, Leishmania major; settings: hMDM1 pretreated 24 h with 100 nM, infected with Lm dsRed MOI 10, flow cytometry, mean ± SD; control 1.00 ± 0.46
Procedure: as §5, with “h. For transgenic LmdsRed flow cytometry was used to analyze infection rates.” for “h.”
(§6) • FACS analysis of Leishmania parasites was performed as described Wenzel et al. ([61]). […] The cells were washed in FACS-Buffer and analyzed by flow cytometry. • To assess parasite survival, Leishmania (dsRed^+) infected hMDM were washed in FACS-buffer and infection rate (% of dsRed^+ hMDM) and the parasite load (mean fluorescent intensity) were assessed by flow cytometry. […] Data were analyzed by BD FACS Diva or FlowJo software (Treestar).

L. major dsRed in hMDM1 [6] = assay: Infection rate (% dsRed+ hMDM1) by flow cytometry; format: cell-based, Leishmania major; settings: hMDM1 pretreated 24 h with 100 nM, infected with Lm dsRed MOI 10, flow cytometry
Procedure: as §5, with “h. For transgenic LmdsRed flow cytometry was used to analyze infection rates.” for “h.”
as §6

[7] = higher of two hrLL37 concentrations (60 ng/ml per methods)
[8] = lower of two hrLL37 concentrations (30 ng/ml per methods)

| Compound | TUNEL positivity (L. aethiopica (Lae) [1]; Lae axenic amastigotes, hrLL37 (10 and 100 ng/ml in methods, concentration of this value not stated), 24 h, mean ± SD, untreated 32.3 ± 13.3%) | TUNEL positivity (L. aethiopica (Lae) [1]; Lae log-phase promastigotes, higher of two increasing hrLL37 concentrations (60 ng/ml per methods), 72 h, mean ± SD of at least 3 experiments, untreated 13.3 ± 1.2%) | TUNEL positivity (L. aethiopica (Lae) [1]; Lae log-phase promastigotes, lower of two increasing hrLL37 concentrations (30 ng/ml per methods), 72 h, mean ± SD of at least 3 experiments, untreated 13.3 ± 1.2%) | TUNEL positivity (Leishmania major (Lm) [2]; Lm axenic amastigotes, rhLL37 (10 and 100 ng/ml in methods, concentration of this value not stated), 24 h, not significantly increased, untreated 12.0 ± 6.6%) | TUNEL positivity (Leishmania major (Lm) [2]; Lm log-phase promastigotes, higher of two increasing hrLL37 concentrations (60 ng/ml per methods), 72 h, untreated 6.24 ± 1.9%) | TUNEL positivity (Leishmania major (Lm) [2]; Lm log-phase promastigotes, lower of two increasing hrLL37 concentrations (30 ng/ml per methods), 72 h, untreated 6.24 ± 1.9%) | Morphology of treated parasites (Leishmania promastigotes) | AnnexinA5 binding (Leishmania major (Lm) [3]; Lm axenic amastigotes, rhLL37 (10 and 100 ng/ml in methods, concentration of this value not stated), 24 h, minor but significant increase, untreated 3.3 ± 2.3%) | AnnexinA5-binding parasites (Leishmania major (Lm) [3]; [7]) | AnnexinA5-binding parasites (Leishmania major (Lm) [3]; [8]) | AnnexinA5 binding (L. aethiopica (Lae) [4]; Lae axenic amastigotes, hrLL37 (10 and 100 ng/ml in methods, concentration of this value not stated), 24 h, untreated 18.7 ± 6.1%) | AnnexinA5-binding parasites (L. aethiopica (Lae) [4]; [7]) | AnnexinA5-binding parasites (L. aethiopica (Lae) [4]; [8]) | cathelicidin protein expression, fold increase (cathelicidin; early (24 h)) | cathelicidin protein expression, fold increase (cathelicidin; late (6 d)) | CAMP gene expression, fold increase (CAMP) | L. major parasite survival (mean fluorescent intensity of dsRed, relative to control) (L. major dsRed in hMDM1 [5]) | percentage of hMDM1 infected cells (infection rate) (L. major dsRed in hMDM1 [6]) |
| --- | --- | --- | --- | --- | --- | --- | --- | --- | --- | --- | --- | --- | --- | --- | --- | --- | --- | --- |
| hrLL37: human recombinant LL37 (PeptaNova GmbH), the hCAP18-derived amphipathic α-helical antimicrobial peptide | 87.0 ± 6.1% | 21.1 ± 2.3% | 15.5 ± 8.3% | 12.1 ± 2.1% | 22.9 ± 3.1% | 20.2 ± 0.7% | round-shaped morphology | 8.3 ± 3.0% | 74.8 ± 23.2% | 51.5 ± 20.5% | 71.3 ± 12.6% | 31.3 ± 26% | 27.1 ± 14.3% | – | – | – | – | – |
| C=C1/C(=C\C=C2/CCC[C@]3(C)[C@@H]([C@H](C)CCCC(C)(C)O)CC[C@@H]23)C[C@@H](O)C[C@@H]1O [CCT, 1α, 25-dihydroxyvitamin D3] | – | – | – | – | – | – | – | – | – | – | – | – | – | 25.5 ± 22.2 fold | 152.5 ± 149.6 fold | 587 ± 173 fold | 0.60 ± 0.25 | did not change significantly |
| C=C1/C(=C\C=C2/CCC[C@]3(C)[C@@H]([C@H](C)/C=C/[C@@H](O)C4CC4)CC[C@@H]23)C[C@@H](O)C[C@@H]1O [CPT, calcipotriol] | – | – | – | – | – | – | – | – | – | – | – | – | – | – | 101.9 ± 125.4 fold | 282 fold | 0.74 ± 0.23 | did not change significantly |
